Data taken from patent EP1260232A1, “REMEDIES FOR MALIGNANT TUMOR-CONCOMITANT NEUROSIS AND AZOOR OR ANALOGOUS DISEASES THEREOF” (priority 2000, dated 2001).

Key:
[1] = test system: apoptosis caused by CAR; experiment: Therapeutic effect on cancer-associated neuropathy: ERG in rats after intravitreal anti-recoverin and anti-hsp70 antibodies; type: in vivo; conditions: Lewis rats, light for 24 hours; nilvadipine 3.2 mg/kg/day peritoneal for two weeks with antibody infusion into vitreous body; follow-up five weeks; compared with predonine 0.6 µg/kg/day i.m. and cyclosporine A 10 mg/kg/day i.m.; Fig. 1
Procedure: Test animal: Lewis rats (8 weeks of age) Treatment group 5 animals (10 eyes) Control group 5 animals (10 eyes) Photoenvironment: Apoptosis (cell death) was induced under light for 24 hours. Test drugs: Nilvadipine (3.2 mg/kg/day) by peritoneal administration (dissolving solution) polyethylene glycol 400: ethanol: water = 1:1:2 Predonine (0.6 µg/kg/day) by intramuscular injection (dissolving solution) PBS (phosphate buffer solution) Cyclosporine A (10 mg/kg/day) by intramuscular injection (dissolving solution) olive oil Antibodies: anti-recoverin antibody (5 µl/eye) anti-hsp70 antibody (5 µl/eye) Administration method: Test drugs were administered for two weeks along with infusion of antibodies into vitreous body of the eye. Follow-up observation was performed for five weeks after the start of administration. PBS alone was administered to the control group.
In Fig. 1, the vertical axis represents ERG (electroretinogram) amplitude, and the horizontal axis is the lapse of time in weeks. Δ: nilvadipine group; □: predonine group; ◇: cyclosporin A group; and ○: control group.

[2] = Clinical case: therapeutic effect on AZOOR, static visual field examination (Humphrey visual field analyzer); type: in vivo; conditions: one AZOOR patient
Excerpt: Case: History of the present illness: The patient became aware of dark and blurred vision in the center of their visual field on September 1, 1999, and visited Ohyachi Kyoritsu Eye Clinic on September 4 in the same year.. […] ERG was subnormal and normal for the right and left eyes, respectively. […] FAG detected mild leakage of fluorescein from the optic disc of the right eye. In view of these observations, optic nerve disorder was suspected and the patient was made to visit a brain surgeon in the neighborhood to receive CT and MRT examinations. However, no abnormality was found. […] To treat the eye symptom, the clinic prescribed oral medications such as drug for ameliorating circulation for a while, but no improvement of visual field was observed. Thus, on October 1, 1999, the patient was referred to the Department of ophthalmology at Sapporo Medical University, School of Medicine for close examination. Results of the first examination: Visual acuity was Vd=1.2 and Vs=1.2. Although pupils were round and equal in size, the right eye was RAPD(+) but no oculomotor abnormalities were observed. […] In the static visual field examination, reduction of the sensitivity in the central visual field was observed. Course of disease: Oral administration of prednisolone (40mg/day) was started on October 1, 1999. […]

Row | SMILES | ERG (electroretinogram) amplitude [1] | static visual field examination / visual sensitivity ([2]; two months after start of oral nilvadipine, following 0.3 ml Depo-Medrol sub-Tenon's injection to both eyes, Figs. 4 and 5) | visual field ([2]; oral prednisolone 40 mg/day reduced stepwise to 10 mg/day, October-November 1999, Figs. 2 and 3)
1 | COC(=O)C1=C(C#N)NC(C)=C(C(=O)OC(C)C)C1c1cccc([N+](=O)[O-])c1 (stereo not drawn) [nilvadipine, isopropyl 6-cyano-5-methoxycarbonyl-2-methyl-4-(3-nitrophenyl)-1,4-di hydropyridine-3-carboxylate ester] | more effective than predonine and cyclosporin A | remarkable improvement of visual sensitivity | 
2 | C[C@]12C=CC(=O)C=C1CC[C@@H]1[C@@H]2[C@@H](O)C[C@@]2(C)[C@H]1CC[C@]2(O)C(=O)CO [prednisolone] |  |  | could not improve the visual field
